Where two headings read alike, the source gives them in different places.
Tests used:
[1] = system: SH-SY5Y-APPSw cells; assay: Thioflavin-T staining of amyloid-like aggregates in SH-SY5Y-APPSw cells; type: cell-based, human; details: neuronal cells (FIG. 9)
Method: Several TDZD-conjugated drugs (putative GSK-3 inhibitors) were evaluated for their ability to reduce accumulation of protein aggregates, and for protection against aggregation-associated end-points in the following model systems: (i.) SH-SY5Y-APPSw, a neuroblastoma cell line expressing the Swedish mutation of Amyloid Precursor Protein (APPSw), and thus predisposed to form β-amyloid deposits; (ii.) C. elegans strain CL4176, a model of Alzheimer-like amyloidopathy that can be induced to express human Aβ1-42 in muscle, or may express it at a lower level without induction; (iii.) C. elegans strain AM141, a model of Huntington-like polyglutamine aggregation that constitutively expresses Q40::YFP (a tract of 40 glutamines fused in-frame to yellow fluorescent protein) in muscle cells and forms aggregates progressively with adult aging. The TDZD analog PNR-962 (a putative GSK-3 inhibitor) and other related compounds (not shown) were protective in all aggregation assays.
First, the effects of TDZD analogues were tested on the human neuroblastoma cell line SH-SY5Y-APPSw, a model of Alzheimer-like amyloid aggregation expressing the “Sw” mutant form of Amyloid Precursor Protein, APP. These drugs all produced significant reductions in amyloid-like aggregates, by 30-50% as quantified by thioflavin-T staining intensity (data for PNR-962 are shown in FIG. 4). Modified TDZD-8 analogues PNR-962 and BSK-179 are more anti-aggregative than TDZD-8, lowering total amyloid-staining intensity by a further 14% (data not shown).
Following previously described experimental procedures (Liu, et al. (2005). S100B-induced microglial and neuronal IL-1 expression is mediated by cell type-specific transcription factors. Journal of Neurochemistry. 92(3): 546-553), SH-SY5Y-APPSw neuronal cells expressing an aggregation-prone double mutant of amyloid precursor protein (APPSw) were cultured in DMEM plus 10% (v/v) fetal bovine serum (FBS) at 37° C. Cells were suspended in trypsin/EDTA and rinsed in PBS prior to re-plating or harvesting. […] Human neuroblastoma cells were treated with PNR962, either simultaneous with sAPPα or beginning 1 h prior to sAPPα addition (pre-treatment) in order to ascertain the protective benefits of PNR962 on protein aggregation in human neuroblastoma cell lines. A similar experimental procedure was followed to examine the effect of treatment with these analogs on non-neuronal human cells, exposing human embryonic kidney cells (HEK) that express tau-like aggregates (found in AD-associated diseases) to 0.001, 0.01, and 1-μM doses of TDZD-8 and its analogues.
To observe the protective effects of the novel TDZD analogs on protein aggregation in SY5Y-APPSw cells, using DMEM medium containing 10% fetal calf serum in […], cells were cultured at 37′C for 26 hrs allowing cells to approximately double in number. After 48 h of cell incubation in the presence of specified concentrations of drug or vehicle, cells were fixed 15 min in formaldehyde (4% v/v), washed, and stained 20 min at ˜22° C. in a dark container with 0.1% w/v Thioflavin T mixed with DAPI (1 μg/ml; Life Technologies, Grand Island, N.Y., USA). […] The intensity of aggregate/thioflavin-T fluorescence per field was quantified via an Image J plug-in developed in-house, and normalized to the number of DAPI^+ nuclei counted per field, to obtain an average intensity of aggregates per cell for each treatment.

[2] = system: MV4-11 cell line (myelomonocytic leukemia); details: MV4-11 cells
[3] = system: BT-549; assay: NCI-60 growth inhibition: BT-549 (Breast Cancer); type: cell-based, human; details: Homo sapiens
[4] = system: SN12C; assay: NCI-60 growth inhibition: SN12C (Renal Cancer); type: cell-based, human; details: Homo sapiens
[5] = system: K-562; assay: NCI-60 growth inhibition: K-562 (Leukemia); type: cell-based, human; details: Homo sapiens, K562
[6] = system: OVCAR-5; assay: NCI-60 growth inhibition: OVCAR-5 (Ovarian Cancer); type: cell-based, human; details: Homo sapiens
[7] = system: A498; assay: NCI-60 growth inhibition: A498 (Renal Cancer); type: cell-based, human; details: Homo sapiens
[8] = system: HS 578T; assay: NCI-60 growth inhibition: HS 578T (Breast Cancer); type: cell-based, human; details: Homo sapiens
[9] = system: UACC-257; assay: NCI-60 growth inhibition: UACC-257 (Melanoma); type: cell-based, human; details: Homo sapiens
[10] = system: OVCAR-4; assay: NCI-60 growth inhibition: OVCAR-4 (Ovarian Cancer); type: cell-based, human; details: Homo sapiens
[11] = system: SNB-19; assay: NCI-60 growth inhibition: SNB-19 (CNS Cancer); type: cell-based, human; details: Homo sapiens
[12] = system: MCF7; assay: NCI-60 growth inhibition: MCF7 (Breast Cancer); type: cell-based, human; details: Homo sapiens
[13] = system: OVCAR-3; assay: NCI-60 growth inhibition: OVCAR-3 (Ovarian Cancer); type: cell-based, human; details: Homo sapiens
[14] = system: HCT-15; assay: NCI-60 growth inhibition: HCT-15 (Colon Cancer); type: cell-based, human; details: Homo sapiens
[15] = system: EKVX; assay: NCI-60 growth inhibition: EKVX (Non-Small-Cell Lung Cancer); type: cell-based, human; details: Homo sapiens
[16] = system: MDA-MB-231/ATCC; assay: NCI-60 growth inhibition: MDA-MB-231/ATCC (Breast Cancer); type: cell-based, human; details: Homo sapiens
[17] = system: SK-MEL-5; assay: NCI-60 growth inhibition: SK-MEL-5 (Melanoma); type: cell-based, human; details: Homo sapiens
[18] = system: SF-268; assay: NCI-60 growth inhibition: SF-268 (CNS Cancer); type: cell-based, human; details: Homo sapiens
[19] = system: OVCAR-8; assay: NCI-60 growth inhibition: OVCAR-8 (Ovarian Cancer); type: cell-based, human; details: Homo sapiens
[20] = system: ACHN; assay: NCI-60 growth inhibition: ACHN (Renal Cancer); type: cell-based, human; details: Homo sapiens
[21] = system: HOP-92; assay: NCI-60 growth inhibition: HOP-92 (Non-Small-Cell Lung Cancer); type: cell-based, human; details: Homo sapiens
[22] = system: UACC-62; assay: NCI-60 growth inhibition: UACC-62 (Melanoma); type: cell-based, human; details: Homo sapiens
[23] = system: SW-620; assay: NCI-60 growth inhibition: SW-620 (Colon Cancer); type: cell-based, human; details: Homo sapiens
[24] = system: HL-60(TB); assay: NCI-60 growth inhibition: HL-60(TB) (Leukemia); type: cell-based, human; details: Homo sapiens; HL-60(TB) (Leukemia); read-out: GI50
[25] = system: human leukemia cell lines; assay: NCI-60 growth inhibition, leukemia cell lines
[26] = system: M14; assay: NCI-60 growth inhibition: M14 (Melanoma); type: cell-based, human; details: Homo sapiens
[27] = system: SF-539; assay: NCI-60 growth inhibition: SF-539 (CNS Cancer); type: cell-based, human; details: Homo sapiens
[28] = system: SK-MEL-2; assay: NCI-60 growth inhibition: SK-MEL-2 (Melanoma); type: cell-based, human; details: Homo sapiens
[29] = system: T-47D; assay: NCI-60 growth inhibition: T-47D (Breast Cancer); type: cell-based, human; details: Homo sapiens, T47D
[30] = system: NCI-H460; assay: NCI-60 growth inhibition: NCI-H460 (Non-Small-Cell Lung Cancer); type: cell-based, human; details: Homo sapiens
[31] = system: RPMI-8226; assay: NCI-60 growth inhibition: RPMI-8226 (Leukemia); type: cell-based, human; details: Homo sapiens
[32] = system: UO-31; assay: NCI-60 growth inhibition: UO-31 (Renal Cancer); type: cell-based, human; details: Homo sapiens
[33] = system: IGROV1; assay: NCI-60 growth inhibition: IGROV1 (Ovarian Cancer); type: cell-based, human; details: Homo sapiens, IGROV-1
[34] = system: U251; assay: NCI-60 growth inhibition: U251 (CNS Cancer); type: cell-based, human; details: Homo sapiens, U-251
[35] = system: MDA-MB-435; assay: NCI-60 growth inhibition: MDA-MB-435 (Melanoma); type: cell-based, human; details: Homo sapiens
[36] = system: DU-145; assay: NCI-60 growth inhibition: DU-145 (Prostate Cancer); type: cell-based, human; details: Homo sapiens
[37] = system: MOLT-4; assay: NCI-60 growth inhibition: MOLT-4 (Leukemia); type: cell-based, human; details: Homo sapiens
[38] = system: HT29; assay: NCI-60 growth inhibition: HT29 (Colon Cancer); type: cell-based, human; details: Homo sapiens, HT-29
[39] = system: LOX IMVI; assay: NCI-60 growth inhibition: LOX IMVI (Melanoma); type: cell-based, human; details: Homo sapiens
[40] = system: MALME-3M; assay: NCI-60 growth inhibition: MALME-3M (Melanoma); type: cell-based, human; details: Homo sapiens
[41] = system: NCI-H23; assay: NCI-60 growth inhibition: NCI-H23 (Non-Small-Cell Lung Cancer); type: cell-based, human; details: Homo sapiens
[42] = system: NCI-H522; assay: NCI-60 growth inhibition: NCI-H522 (Non-Small-Cell Lung Cancer); details: Homo sapiens, NCI-H522
[43] = system: SK-MEL-28; assay: NCI-60 growth inhibition: SK-MEL-28 (Melanoma); type: cell-based, human; details: Homo sapiens
[44] = system: RXF 393; assay: NCI-60 growth inhibition: RXF 393 (Renal Cancer); type: cell-based, human; details: Homo sapiens
[45] = system: MDA-MB-468; assay: NCI-60 growth inhibition: MDA-MB-468 (Breast Cancer); type: cell-based, human; details: Homo sapiens; MDA-MB-468 (Breast Cancer); read-out: GI50
[46] = system: CAKI-1; assay: NCI-60 growth inhibition: CAKI-1 (Renal Cancer); type: cell-based, human; details: Homo sapiens
[47] = system: CCRF-CEM; assay: NCI-60 growth inhibition: CCRF-CEM (Leukemia); type: cell-based, human; details: Homo sapiens
[48] = system: 786-0; assay: NCI-60 growth inhibition: 786-0 (Renal Cancer); type: cell-based, human; details: Homo sapiens
[49] = system: HCT-116; assay: NCI-60 growth inhibition: HCT-116 (Colon Cancer); details: Homo sapiens, HCT-116
[50] = system: TK-10; assay: NCI-60 growth inhibition: TK-10 (Renal Cancer); type: cell-based, human; details: Homo sapiens
[51] = system: SR; assay: NCI-60 growth inhibition: SR (Leukemia); type: cell-based, human; details: Homo sapiens
[52] = system: PC-3; assay: NCI-60 growth inhibition: PC-3 (Prostate Cancer); type: cell-based, human; details: Homo sapiens
[53] = system: COLO 205; assay: NCI-60 growth inhibition: COLO 205 (Colon Cancer); type: cell-based, human; details: Homo sapiens
[54] = Ibuprofen-TDZD analogs (Table 3)

CC(C)Cc1ccc(C(C)C(=O)NCc2ccc(Cn3c(=O)sn(CCCl)c3=O)cc2)cc1 (stereo not drawn) [BSK-137]
reduction of aggregate intensity (Thioflavin-T staining) [1]: 34%
LD50, 7AAD (μM) 24 h [2, 54]: 3.39 µM
LD50, Alamar blue (μM) 24 h [2, 54]: 7.00 µM
LD50, YOPRO (μM) 24 h [2, 54]: 3.28 µM

C=C1C(=O)O[C@H]2[C@H]1CC/C(COC(=O)NCc1ccc(Cn3c(=O)sn(CCCC)c3=O)cc1)=C\CC[C@@]1(C)O[C@@H]21 [BSK-230]
GI50 [3]: 1560 nM
GI50 [4]: 1730 nM
GI50 [5]: 890 nM
GI50 [6]: 1930 nM
GI50 [7]: 3280 nM
GI50 [8]: 3240 nM
GI50 [9]: 2030 nM
GI50 [10]: 1520 nM
GI50 [11]: 6630 nM
GI50 [12]: 1870 nM
GI50 [13]: 1590 nM
GI50 [14]: 2020 nM
GI50 [15]: 3320 nM
GI50 [16]: 1800 nM
GI50 [17]: 3180 nM
LD50, 7AAD (μM) 24 h ([2]; MMB-TDZD analogs (Table 2)): 0.01 µM
LD50, Alamar blue (μM) 24 h ([2]; MMB-TDZD analogs (Table 2)): 0.30 µM
LD50, YOPRO (μM) 24 h ([2]; MMB-TDZD analogs (Table 2)): 0.02 µM
LD50 ([2]; values in text): 20 nM
GI50 [18]: 4280 nM
GI50 [19]: 3640 nM
GI50 [20]: 1670 nM
GI50 [21]: 1290 nM
GI50 [22]: 1620 nM
GI50 [23]: 1510 nM
GI50 [24]: 1810 nM
GI50 ([25]; Homo sapiens): 280 to 900 nM
potency against leukemia cell lines (GI50 <1.0) ([25]; NCI panel): highly potent against 3 of the 6 leukemia cell lines
GI50 [26]: 1450 nM
GI50 [27]: 1680 nM
GI50 [28]: 4530 nM
GI50 [29]: 2040 nM
GI50 [30]: 5920 nM
GI50 [31]: 1480 nM
GI50 [32]: 1450 nM
GI50 [33]: 1830 nM
GI50 [34]: 41500 nM
GI50 [35]: 1650 nM
GI50 [36]: 1810 nM
GI50 [37]: 1550 nM
GI50 [38]: 2080 nM
GI50 [39]: 1650 nM
GI50 [40]: 1600 nM
GI50 [41]: 4190 nM
GI50 [42]: 1190 nM
GI50 [43]: 1800 nM
GI50 [44]: 1570 nM
GI50 [45]: 1730 nM
GI50 [46]: 1640 nM
GI50 [47]: 650 nM
GI50 [48]: 2000 nM
GI50 [49]: 1360 nM
GI50 [50]: 1810 nM
GI50 [51]: 400 nM
GI50 [52]: 1750 nM
GI50 [53]: 2000 nM

From patent US20230125667A1, “NOVEL TDZD ANALOGS AS AGENTS THAT DELAY, PREVENT, OR REVERSE AGE-ASSOCIATED DISEASES AND AS ANTI-CANCER AND ANTILEUKEMIC AGENTS” (United States Government as represented by the Department …, priority 2020, published 2023)
